The supplement of paper PMC10307832

Experiments:
Test in all cases: relative viability (nuclei count vs DMSO), 5 days (fraction); higher = more cells survive
[1] = compound: CS(=O)(=O)c1ccc(-c2cnc(N)c(C(=O)Nc3ccccc3)n2)cc1 [VE-821] + CC(=O)Nc1cccc(-n2c(=O)n(C3CC3)c(=O)c3c(Nc4ccc(I)cc4F)n(C)c(=O)c(C)c32)c1 [Trametinib] (partner 0.02 µM)
Summary of the method: (§1)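 Medians of duplicate plates are given as relative viability. That measure is the nuclei count in treated wells divided by the count in vehicle wells. Counts were taken on 4× images of lung cancer cell lines in 1536-well plates, 5 days after pin-tool dosing the day after seeding with one drug alone or a fixed anchor-drug dose plus five library-drug doses (not always all listed) in √10 steps.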

[2] = compound: CS(=O)(=O)c1ccc(C(=O)Nc2ccc(Cl)c(-c3ccccn3)c2)c(Cl)c1 [Vismodegib] + CCNC(=O)c1noc(-c2cc(C(C)C)c(O)cc2O)c1-c1ccc(CN2CCOCC2)cc1 [Luminespib] (partner 0.01 µM)
Summary of the method: as §1

[3] = compound: CS(=O)(=O)c1ccc(-c2cnc(N)c(C(=O)Nc3ccccc3)n2)cc1 [VE-821] + Nc1nc2[nH]cc(CCc3ccc(C(=O)N[C@@H](CCC(=O)O)C(=O)O)cc3)c2c(=O)[nH]1 [Pemetrexed] (partner 0.2 µM)
Summary of the method: as §1

[4] = compound: CS(=O)(=O)c1ccc(C(=O)Nc2ccc(Cl)c(-c3ccccn3)c2)c(Cl)c1 [Vismodegib] + NC(=O)Nc1cc(-c2cccc(F)c2)sc1C(=O)N[C@H]1CCCNC1 [AZD7762] (partner 0.2 µM)
Summary of the method: as §1

| Cell Line | relative viability ([1]; first compound 0.08 µM) | relative viability ([1]; first compound 0.253 µM) | relative viability ([1]; first compound 0.8 µM) | relative viability ([1]; first compound 2.53 µM) | relative viability ([1]; first compound 8 µM) | relative viability ([2]; first compound 0.08 µM) | relative viability ([2]; first compound 0.253 µM) | relative viability ([2]; first compound 0.8 µM) | relative viability ([2]; first compound 2.53 µM) | relative viability ([2]; first compound 8 µM) | relative viability ([3]; first compound 0.08 µM) | relative viability ([3]; first compound 0.253 µM) | relative viability ([3]; first compound 0.8 µM) | relative viability ([3]; first compound 2.53 µM) | relative viability ([3]; first compound 8 µM) | relative viability ([4]; first compound 0.08 µM) | relative viability ([4]; first compound 0.253 µM) | relative viability ([4]; first compound 0.8 µM) | relative viability ([4]; first compound 8 µM) | relative viability ([4]; first compound 2.53 µM) |
| --- | --- | --- | --- | --- | --- | --- | --- | --- | --- | --- | --- | --- | --- | --- | --- | --- | --- | --- | --- | --- |
| SW 900 | 0.675 | 0.792 | 0.687 | 0.706 | 0.403 | 0.183 | 0.164 | 0.164 | 0.19 | 0.163 | 0.494 | 0.504 | 0.461 | 0.46 | 0.221 | 0.474 | 0.539 | 0.689 | 0.61 |  |
| NCI-H358 | 0.143 | 0.139 | 0.139 | 0.138 | 0.134 | 0.325 | 0.258 | 0.418 | 0.33 | 0.204 | 0.177 | 0.199 | 0.177 | 0.166 | 0.122 | 0.529 | 0.57 | 0.664 | 0.611 | 0.477 |
| NCI-H727 | 0.398 | 0.432 | 0.416 | 0.422 | 0.396 | 0.428 | 0.518 | 0.322 | 0.359 | 0.422 |  |  |  |  |  | 0.594 | 0.691 | 0.677 | 0.661 | 0.448 |
| NCI-H1563 |  |  |  |  |  | 0.468 | 0.48 | 0.529 | 0.545 | 0.571 | 0.778 | 0.7 | 0.613 | 0.761 | 0.481 |  |  |  |  |  |
| NCI-H1650 | 0.869 | 0.453 | 0.668 | 0.586 | 0.402 | 0.214 | 0.192 | 0.212 | 0.178 | 0.18 | 0.344 | 0.355 | 0.289 | 0.386 | 0.307 |  |  |  |  |  |
| COR-L 105 | 0.463 | 0.412 | 0.483 | 0.4 | 0.449 | 0.657 | 0.785 | 0.92 | 0.973 | 0.773 | 1.07 | 0.965 | 0.74 | 1.04 | 0.712 |  |  |  |  |  |
| COR-L23 | 0.658 | 0.658 | 0.587 | 0.759 | 0.535 | 0.672 | 0.779 | 0.586 | 0.675 | 0.75 | 0.198 | 0.211 | 0.196 | 0.197 | 0.16 |  |  |  |  |  |
| NCI-H1623 |  |  |  |  |  | 0.483 | 0.439 | 0.611 | 0.457 | 0.6 |  |  |  |  |  |  |  |  |  |  |
| NCI-H520 | 0.752 | 0.744 | 0.654 | 0.752 | 0.44 | 0.24 | 0.225 | 0.198 | 0.207 | 0.212 | 0.75 | 0.657 | 0.582 | 0.361 | 0.223 |  |  |  |  |  |
| HCC-78 | 0.816 | 0.646 | 0.689 | 0.855 | 0.917 |  |  |  |  |  | 0.875 | 0.904 | 0.903 | 0.853 | 0.89 | 0.575 | 0.605 | 0.544 | 0.634 | 0.542 |
